Here are results for 9 compounds from patent US8557837B2, “Sinomenine derivatives, synthetic methods and uses thereof” (Shanghai Institute of Organic Chemistry, Chinese Academy of …, priority 2010, dated 2013).

Each structure is given as a SMILES string. Entries after “also recorded” stand apart in the source; their conditions may differ.

In series [1] the test system is TNF-α. The series can be described thus: LPS-induced endotoxin shock model, plasma TNF-alpha by ELISA. The format is in vivo. The conditions noted are these: male C57BL/6 mice, 25, 50, 100 mg/Kg injected peritoneally 1 hour before LPS 2.5 mg/Kg; blood 1.5 hours after LPS. The source says:
The horizontal axis indicates the compound numbers corresponding to the examples or the amount of Compound 1 used in mg/Kg of mouse body weight. The vertical axis indicates the concentrations of TNF-α.
Materials: C57BL/6 mice (6-8 week old) are purchased from Shanghai Laboratory Animal Center (SLAC). Animals are kept, with sufficient water and standard diets, in the Laboratory Animal Center (clean room) in the Institute of Biochemistry and Cell Biology at the Shanghai Institute for Biological Sciences, Chinese Academy of Sciences.
Lipopolysaccharides (LPS) was purchased from Sigma (St. Louis, Mo.) was dissolved in sterile physiological saline and aliquots are stored at −70° C. (The LPS used in the cell testing has a catalog No. L4391, and used in animal testing has a catalog No. L3129.)
Cytokine (TNF-alpha) ELISA test kit (Catalog No. MTA00) was purchased from R&D Co.
Steps: (1) 6-8 week old male C57BL/6 mice are randomly grouped in 5 mice per group for use in endotoxin model tests;
(2) weigh each mouse, and inject peritoneally 200 μL different concentrations of small molecule Compound 1 in physiological saline (the injection doses for the low, medium, and high groups are respectively 25 mg/Kg, 50 mg/Kg, and 100 mg/Kg body weight). The control group was injected with 200 μL physiological saline; […]

Series [2] has as its system TNF-α. Description: In vitro inhibition of TNF-α (LPS-stimulated J774 macrophages, ELISA of supernatant). The series is classed as cell-based. As to conditions: mice macrophage cell line J774, 1 μg/mL LPS, compound 10 μM, 5 hours. How it is done: The horizontal axis indicates the compound numbers corresponding to the examples, and the vertical axis indicates the inhibition rate (IR) of TNF-α. The concentration used in the assays is 10 μM.
In vitro inhibition of TNF-α: inoculate 48 well plates with mice macrophase cell line J774, at 1×10^5 cells/well. Incubate in DMEM containing 10% FBS under 6% CO2 for 12 hours. Use DMEM medium containing 1 μg/mL LPS to dilute the small molecule compounds to a final concentration of 10^−5 mol/L and use that to replace the original culture medium. The incubation is continued for another 5 hours. Collect the supernatants and determine TNF-α using ELISA. In this experiment, compound SB 202190 (4-(4-fluorophenyl)-2-(4-hydroxyphenyl)-5-(4-pyridyl)-1H-imidazole, CAS 152121-30-7, was purchased from Sigma. This compound is a specific inhibitor of p38 MAPK. Through inhibition of p38 phosphorylation, it inhibits the production of TNF-α) is used as a positive control.
(An ELISA detects its analyte on a solid surface through an enzyme-linked reagent.)

As usually defined, the melting point is the temperature of the solid-liquid transition. Regarding `COC1=C[C@@H]2[C@@H]3[C@H](Sc4ccc(C)cc4)c4ccc(O)c(O)c4[C@]2(CCN3C)CC1=O` [Compound 1], the melting point is 224 to 225 °C (dec.). Moreover, the “effect on pro-inflammatory cytokine TNF-α level in plasma (FIG. 3)” value in the series with TNF-α [1] is “substantial inhibitory effect; also recorded: dose dependent”. Moreover, the “inhibition rate (IR) of TNF-α / anti-inflammatory activity (FIG. 1)” value in the series on TNF-α [2] was “apparent activities”.

With `COC1=CC2[C@@H]3[C@H](Sc4ccccc4)c4ccc(O)c(O)c4[C@]2(CCN3C)CC1=O` (stereo partly drawn) [Compound 4], the melting point was 210 to 212 °C (dec.). Besides, in the series on TNF-α [2], the “inhibition rate (IR) of TNF-α / anti-inflammatory activity (FIG. 1)” value is given as “apparent activities”.

Consider `COC1=CC2[C@@H]3[C@H](Sc4ccc(C(C)(C)C)cc4)c4ccc(O)c(O)c4[C@]2(CCN3C)CC1=O` (stereo partly drawn) [Compound 8], for which the melting point is 232 to 233 °C (dec.). In the series with TNF-α [2], the “inhibition rate (IR) of TNF-α / anti-inflammatory activity (FIG. 1)” value is recorded as “apparent activities”.

`COC1=CC2[C@@H]3[C@H](OC(C)=O)c4ccc(OC(C)=O)c(OC(C)=O)c4[C@]2(CCN3C)CC1=O` (stereo partly drawn) [Compound 31] showed a melting point of 198 to 199 °C. Further, the “inhibition rate (IR) of TNF-α / anti-inflammatory activity (FIG. 1)” value in the series on TNF-α [2] is “apparent activities”.

As to `COC1=CC2[C@@H]3[C@H](OC)c4ccc(OC)c(O)c4[C@]2(CCN3C)CC1=O` (stereo partly drawn) [Compound 33, 10β-methoxysinomenine], the melting point was 201 to 203 °C (dec.). In the series on TNF-α [2] (10 µM), the “inhibition rate (IR) of TNF-α / anti-inflammatory activity (FIG. 1)” value is listed as “TNF-α stimulating effects; also recorded: TNF-α stimulatory activities”.

Consider `COC1=CC2[C@@H]3[C@H](OC(C)=O)c4c(CO)cc(OC)c(O)c4[C@]2(CCN3C)CC1=O` (stereo partly drawn) [Compound 34, 1-hydroxymethyl-10β-acetoxysinomenine], for which the “inhibition rate (IR) of TNF-α / anti-inflammatory activity (FIG. 1)” value with TNF-α [2] (10 µM) is recorded as “TNF-α stimulating effects; also recorded: TNF-α stimulatory activities”.

In the case of `COC1=CC2[C@@H]3[C@H](OC)c4c(CO)cc(OC)c(O)c4[C@]2(CCN3C)CC1=O` (stereo partly drawn) [Compound 35, 1-hydroxymethyl-10β-methoxysinomenine], the “inhibition rate (IR) of TNF-α / anti-inflammatory activity (FIG. 1)” value in the series on TNF-α [2] (10 µM) is reported as “TNF-α stimulating effects; also recorded: TNF-α stimulatory activities”.

As for `COC1=CC2[C@@H]3C(=O)c4ccc(OC)c(OC(C)=O)c4[C@]2(CCN3C)C[C@@H]1O` (stereo partly drawn) [Compound 39], the “inhibition rate (IR) of TNF-α / anti-inflammatory activity (FIG. 1)” value in the series with TNF-α [2] is listed as “apparent activities”.

Turning to `COC1=CC2[C@@H]3C(=O)c4ccc(OC)c(OC(C)=O)c4[C@]2(CCN3C)C[C@H]1O` (stereo partly drawn) [Compound 40], the “inhibition rate (IR) of TNF-α / anti-inflammatory activity (FIG. 1)” value in the series with TNF-α [2] was “apparent activities”.
